Reference: patent publication US20240383913A1, “THIOPHENE RING COMPOUND, PREPARATION METHOD THEREFOR AND APPLICATION THEREOF” (CENTER FOR EXCELLENCE IN MOLECULAR CELL SCIENCE, CHINESE …, priority 2021, published 2024)
pEC50, pKi: −log10 of the molar value. Read-outs that look alike come from different tables or passages of the source.

What was measured:
5-HT2A receptor [1] = biological target: T1, 5-HT2A receptor (Homo sapiens (Human), UniProt P28223); experiment: 5-HT2A receptor Gαq BRET (G protein trimer dissociation); assay type: cell-based; conditions: for Emax: read-out: Gαq BRET (Emax %);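 for all read-outs here: cells transfected with 5-HT2A receptor, Gαq-Rluc, Gβ3 and Gγ9-GFP, BRET read with coelenterazine 400a (5 µM) across a compound dilution series in duplicate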
T1 sequence (P28223 whole entry): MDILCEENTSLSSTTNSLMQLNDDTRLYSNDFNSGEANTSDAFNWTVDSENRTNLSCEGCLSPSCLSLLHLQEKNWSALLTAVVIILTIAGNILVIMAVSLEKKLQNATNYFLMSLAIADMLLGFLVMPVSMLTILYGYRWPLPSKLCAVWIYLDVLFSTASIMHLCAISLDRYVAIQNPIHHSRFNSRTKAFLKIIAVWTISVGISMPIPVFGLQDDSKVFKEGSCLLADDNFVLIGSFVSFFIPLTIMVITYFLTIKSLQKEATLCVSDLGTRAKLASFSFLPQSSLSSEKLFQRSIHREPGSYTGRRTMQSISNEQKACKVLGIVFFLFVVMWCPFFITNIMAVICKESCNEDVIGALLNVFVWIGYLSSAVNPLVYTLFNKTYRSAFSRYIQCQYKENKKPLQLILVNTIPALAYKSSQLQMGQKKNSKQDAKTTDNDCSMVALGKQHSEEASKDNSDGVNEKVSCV
Method: (§1) To examine the downstream G protein signaling pathway mediated by 5-HT2A receptors, on the first day, a 6 cm culture dish was used for transfection with 1 μg of 5-HT2A receptors, 1 μg of Gαq containing C-terminal seaweed luciferase (Gαq-Rluc), 1 μg of Gβ3, 1 μg of Gγ9 containing C-terminal green fluorescent protein (Gγ9-GFP), and 16 μL of PEI. At the same time, in order to examine the downstream β-arrestin2 signaling pathway mediated by 5-HT2A receptors, on the first day, a 6 cm culture dish was used for transfection with 500 μg of 5-HT2A receptors containing C-terminal seaweed luciferase (5-HT2A-Rluc), 500 μg of G protein-coupled receptor kinase 2 (GRK2), 2500 μg of β-arrestin2 containing N-terminal green fluorescent protein (GFP2-ARRB2), and 14 μL of PEI. The next day, the confluent cells of a 6 cm culture dish were digested and reseeded into a 96-well plate with 100 μL of culture medium was added to each well. On the third day, the drugs were added for test. The 96-well plate was taken out from the cell incubator to decant the culture medium, 40 μL of the substrate coelenterazine 400a (final concentration of 5 μM) was added to each well, and then 20 μL of different drugs were added sequentially from left to right to ensure that the final concentration of the drug decreased gradually from bottom to top, with two replicates per treatment. Finally, the prepared samples were loaded on machine for test. The machine readout value reflected the recruitment of β-arrestin2 to the membrane or the dissociation of G protein trimer. The former indicated the degree of activation of the β-arrestin2 signaling pathway downstream of the 5-HT2A receptors, and the latter indicated the degree of activation of the G protein signaling pathway downstream of the 5-HT2A receptors.

5-HT2A receptor [2] = biological target: T1, 5-HT2A receptor; experiment: Affinity for 5-HT2A receptors, radioligand competition with [3H]-ketanserin; assay type: binding; conditions: 293T membrane transiently expressing 5-HT2A
Method: The affinity of the compounds of the present disclosure for the 5-HT2A receptors was determined by the method of radioligand competition experiment. In the first step, a cell membrane component containing specific 5-HT2A receptor was prepared. A 10 cm dish was used for transfection with 10 ng of the 5-HT2A receptor and 40 μL of PEI. After 48 hours, the 10 cm dish was taken out from the cell incubator and the cultured cells had expressed the 5-HT2A receptor. A vacuum pump was used to suck off the culture medium, 3 mL of lysis buffer was added to each culture dish, and the cells were placed in a 4° C. cold room for 10 minutes. After the cells were detached, the cells were transferred to a 15 mL centrifuge tube and centrifuged at 1500 rpm for 5 minutes at 4° C., and the supernatant was discarded. The cell pellet was transferred to a tissue homogenizer, and 3 mL of lysis buffer was added and fully ground until the cells were broken. Then, cell suspension was equally aliquoted into several EP tubes, centrifuged at 12000 rpm for 5 minutes at 4° C., and the supernatant was discarded. The precipitate was the cell membrane component containing the 5-HT2A receptor. […] First, a standard binding buffer was added to the cell membrane component containing the 5-HT2A receptor, and the cell membrane was disrupted and resuspended with an electric tissue homogenizer. 30 μL of membrane protein suspension was added to each well of a 96-well plate. Then, 30 μL of different drugs were added to the 96-well plate sequentially from bottom to top to ensure that the final drug concentrations were 10^−5 M, 10^−6 M, 10^−7 M, 10^−8 M, 10^−9 M, and 0 M, with two replicates per treatment. Next, 30 μL of [3H]-ketanserin was added to each well of the 96-well plate. The plate was incubated for 2 hours at room temperature in the dark. Detection was conducted. The machine readout value reflected the amount of [3H]-ketanserin bound on the membrane, and after further data processing, the affinity Ki values of different compounds for the 5-HT2A receptor were obtained.

5-HT1A receptor [3] = biological target: T2, 5-HT1A receptor (Homo sapiens (Human), UniProt P08908); experiment: 5-HT1A receptor Gαi1 BRET (G protein trimer dissociation); assay type: cell-based;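 note: cells transiently co-expressing 5-HT1A receptor, luciferase-tagged Gαi1, Gβ3 and GFP-tagged Gγ9, seeded in 96-well plates for BRET measurement of G protein signaling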
T2 sequence (P08908 whole entry): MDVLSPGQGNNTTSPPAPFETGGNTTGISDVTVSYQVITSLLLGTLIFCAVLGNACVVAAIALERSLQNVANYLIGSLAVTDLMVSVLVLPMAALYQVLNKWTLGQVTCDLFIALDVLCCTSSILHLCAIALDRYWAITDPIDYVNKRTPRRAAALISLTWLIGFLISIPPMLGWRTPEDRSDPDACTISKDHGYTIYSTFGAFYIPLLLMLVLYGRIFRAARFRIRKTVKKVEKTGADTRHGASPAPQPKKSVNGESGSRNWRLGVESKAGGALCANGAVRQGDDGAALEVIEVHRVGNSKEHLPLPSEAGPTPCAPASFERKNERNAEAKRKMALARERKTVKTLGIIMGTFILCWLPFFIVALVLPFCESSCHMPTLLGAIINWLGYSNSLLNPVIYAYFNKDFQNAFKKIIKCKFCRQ
Method: (§2) The affinity of the compounds of the present disclosure for the 5-HTIA receptors was determined by the method of radioligand competition experiment. In the first step, a cell membrane component containing specific 5-HTIA receptor was prepared. A 10 cm culture dish was used for transfection with 10 ng of the 5-HTIA receptor and 40 μL of PEI. After 48 hours, the 10 cm culture dish was taken out from the cell incubator and the cultured cells had expressed the 5-HTIA receptor. A vacuum pump was used to suck off the culture medium, 3 mL of lysis buffer was added to each culture dish, and the cells were placed in a 4° C. cold room for 10 minutes. After the cells were detached, the cells were transferred to a 15 mL centrifuge tube and centrifuged at 1500 rpm for 5 minutes at 4° C., and the supernatant was discarded. The cell pellet was transferred to a tissue homogenizer, and 3 mL of lysis buffer was added and fully ground until the cells were broken. Then, cell suspension was equally aliquoted into several EP tubes, centrifuged at 12000 rpm for 5 minutes at 4° C., and the supernatant was discarded. The precipitate was the cell membrane component containing the 5-HT1A receptor. […] First, a standard binding buffer was added to the cell membrane component containing the 5-HT1A receptor, and the cell membrane was disrupted and resuspended with an electric tissue homogenizer. 30 μL of membrane protein suspension was added to each well of a 96-well plate. Then, 30 μL of different drugs were added to the 96-well plate sequentially from bottom to top to ensure that the final drug concentrations were 10^−5 M, 10^−6 M, 10^−7 M, 10^−8 M, 10^−9 M, and 0 M, with two replicates per treatment. Next, 30 μL of [3H]-LSD was added to each well of the 96-well plate. The plate was incubated for 2 hours at room temperature in the dark. Detection was conducted. The machine readout value reflected the amount of [3H]-LSD bound on the membrane, and after further data processing, the affinity Ki values of different compounds for the 5-HTIA receptor were obtained. To examine the downstream G protein signaling pathway mediated by 5-HTIA receptors, on the first day, a 6 cm culture dish was used for transfection with 1 μg of 5-HTIA receptors, 1 μg of Gαi1 containing C-terminal seaweed luciferase (Gαi1-Rluc), 1 μg of Gβ3, 1 μg of Gγ9 containing C-terminal green fluorescent protein (Gγ9-GFP), and 16 μL of PEI. The next day, the confluent cells of a 6 cm culture dish were digested and reseeded into a 96-well plate with 100 μL of culture medium was added to each well. On the third day, the drugs were added for test. The 96-well plate was taken out from the cell incubator to decant the culture medium, 40 μL of the substrate coelenterazine 400a (final concentration of 5 μM) was added to each well, and then 20 μL of different drugs were added sequentially from left to right to ensure that the final concentration of the drug decreased gradually from bottom to top, with two replicates per treatment. Finally, the prepared samples were loaded on machine for test. The machine readout value reflected the dissociation of G protein trimer, and thereby indicated the degree of activation of the G protein signaling pathway downstream of the 5-HTIA receptors.

dopamine D2 receptors [4] = biological target: T3, dopamine D2 receptors (Homo sapiens (Human), UniProt P14416); experiment: Dopamine D2 receptor Gαi1 BRET (G protein trimer dissociation); assay type: cell-based; conditions: for Emax: read-out: Gαi1 BRET (Emax %);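 for all read-outs here: transfected cells co-expressing D2 receptor, Gαi1-Rluc, Gβ3 and Gγ9-GFP, BRET with coelenterazine 400a at 5 µM read as G protein trimer dissociation, graded drug concentrations in duplicate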
T3 sequence (P14416 whole entry): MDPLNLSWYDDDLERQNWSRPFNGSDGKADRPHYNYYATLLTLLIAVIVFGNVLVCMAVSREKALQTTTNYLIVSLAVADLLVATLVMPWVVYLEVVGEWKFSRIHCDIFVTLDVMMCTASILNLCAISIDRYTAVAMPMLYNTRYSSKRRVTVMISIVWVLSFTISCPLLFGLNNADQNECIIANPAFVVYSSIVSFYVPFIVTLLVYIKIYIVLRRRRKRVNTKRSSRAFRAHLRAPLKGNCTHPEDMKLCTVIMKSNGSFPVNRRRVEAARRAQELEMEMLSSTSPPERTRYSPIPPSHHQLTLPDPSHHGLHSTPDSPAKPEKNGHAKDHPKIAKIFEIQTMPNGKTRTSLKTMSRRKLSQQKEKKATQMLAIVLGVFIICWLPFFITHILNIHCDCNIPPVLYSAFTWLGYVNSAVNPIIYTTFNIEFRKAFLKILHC
Method: (§3) To examine the downstream G protein signaling pathway mediated by dopamine D2 receptors, on the first day, a 6 cm culture dish was used for transfection with 1 μg of dopamine D2 receptors, 1 μg of Gαi1 containing a C-terminal seaweed luciferase (Gαi1-Rluc), 1 μg of Gβ3, 1 μg of Gγ9 containing C-terminal green fluorescent protein (Gγ9-GFP), and 16 μL of PEI. At the same time, in order to examine the downstream β-arrestin2 signaling pathway mediated by dopamine D2 receptors, on the first day, a 6 cm culture dish was used for transfection with 500 μg of dopamine D2 receptors containing C-terminal seaweed luciferase (D2-Rluc), 500 μg of G protein-coupled receptor kinase 2 (GRK2), 2500 μg of β-arrestin2 containing N-terminal green fluorescent protein (GFP2-ARRB2) mixed with 14 μL of PEI. The next day, the confluent cells of a 6 cm culture dish were digested and reseeded into a 96-well plate with 100 μL of culture medium added to each well. On the third day, the drugs were added for test. The 96-well plate was taken out from the cell incubator to decant the culture medium, 40 μL of the substrate coelenterazine 400a (final concentration of 5 μM) was added to each well, and then 20 μL of different drugs were added sequentially from left to right to ensure that the final concentration of the drug decreased gradually from bottom to top, with two replicates per treatment. Finally, the prepared samples were loaded on machine for test. The machine readout value reflected the recruitment of β-arrestin2 to the membrane or the dissociation of G protein trimer. The former indicated the degree of activation of the β-arrestin2 signaling pathway downstream of the dopamine D2 receptors, and the latter indicated the degree of activation of the G protein signaling pathway downstream of the dopamine D2 receptors.

5-HT1A receptor [5] = biological target: T2, 5-HT1A receptor; experiment: Affinity for 5-HT1A receptors, radioligand competition with [3H]-LSD; assay type: binding;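 note: membranes from cells transiently transfected with 5-HT1A receptor, bound [3H]-LSD displaced by compound at 10^-9 to 10^-5 M, 2 h incubation at room temperature in the dark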
Method: as §2

5-HT2A receptor [6] = biological target: T1, 5-HT2A receptor; experiment: 5-HT2A receptor β-arrestin2 BRET (recruitment); assay type: cell-based;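 note: cells co-expressing Rluc-tagged 5-HT2A receptor, GRK2 and GFP2-tagged β-arrestin2, read by BRET with coelenterazine 400a (5 µM) across graded drug concentrations in duplicate, signal reflecting β-arrestin2 membrane recruitment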
Method: as §1

dopamine D2 receptors [7] = biological target: T3, dopamine D2 receptors; experiment: Dopamine D2 receptor β-arrestin2 BRET (recruitment); assay type: cell-based; conditions: for Emax: read-out: β-arrestin2 BRET (Emax %);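 for all read-outs here: cells co-expressing Rluc-fused D2 receptor, GRK2 and GFP2-fused β-arrestin2, BRET read with coelenterazine 400a after adding drug over a concentration series, in duplicate wells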
Method: as §3

dopamine D2 receptors [8] = biological target: T3, dopamine D2 receptors; experiment: Affinity for dopamine D2 receptors, radioligand competition with [3H]-Methylspiperone; assay type: binding; conditions: 293T membrane transiently expressing D2
Method: The affinity of the compounds of the present disclosure for the dopamine D2 receptors was determined by the method of radioligand competition experiment. In the first step, a cell membrane component containing specific dopamine D2 receptors was prepared. A 10 cm culture dish was used for transfection with 10 ng of the dopamine D2 receptors and 40 μL of polyethylenimine (PEI hereafter). After 48 hours, the 10 cm culture dish was taken out from the cell culture incubator and the cultured cells had expressed the dopamine D2 receptors. A vacuum pump was used to suck off the culture medium, 3 mL of lysis buffer was added to each culture dish, and the cells were placed in a 4° C. cold room for 10 minutes. After the cells were detached, the cells were transferred to a 15 mL centrifuge tube and centrifuged at 1500 rpm for 5 minutes at 4° C., and the supernatant was discarded. The cell pellet was transferred to a tissue homogenizer, and 3 mL of lysis buffer was added and fully ground until the cells were broken. Then, cell suspension was equally aliquoted into several EP tubes, centrifuged at 12000 rpm for 5 minutes at 4° C., and the supernatant was discarded. The precipitate was the cell membrane component containing the dopamine D2 receptors. […] First, a standard binding buffer was added to the cell membrane component containing the dopamine D2 receptors, and the cell membrane was disrupted and resuspended with an electric tissue homogenizer. 30 μL of membrane protein suspension was added to each well of a 96-well plate. Then, 30 μL of different drugs were added to the 96-well plate sequentially from bottom to top to ensure that the final drug concentrations were 10^−5 M, 10^−6 M, 10^−7 M, 10^−8 M, 10^−9 M, and 0 M, with two replicates per treatment. Next, 30 μL of [3H]-Methylspiperone was added to each well of the 96-well plate. The plate was incubated for 2 hours at room temperature in the dark. Detection was conducted. The machine readout value reflected the amount of [3H]-Methylspiperone bound on the membrane, and after further data processing, the affinity Ki values of different compounds for the dopamine D2 receptors were obtained.

[9] = 5-HT1A receptor, G protein pathway
[10] = 5-HT1A receptor, G protein pathway, read-out: Gαi1 BRET EC50
[11] = D2 receptor, G protein pathway, read-out: Gαi1 BRET EC50
[12] = 293T membrane transiently expressing 5-HT1A, [3H]-LSD, read-out: 5-HT1A affinity Ki
[13] = 5-HT2A receptor, β-arrestin2 pathway
[14] = D2 receptor, β-arrestin2 pathway, read-out: β-arrestin2 BRET EC50
[15] = 5-HT2A receptor, G protein pathway, read-out: Gαq BRET EC50
[16] = 5-HT2A receptor, β-arrestin2 pathway, read-out: β-arrestin2 BRET EC50

| SMILES | Emax (5-HT2A receptor [1]) [%] | pKi (5-HT2A receptor [2]) | Emax (5-HT1A receptor [3]; [9]) [%] | pEC50 (5-HT1A receptor [3]; [10]) | pEC50 (dopamine D2 receptors [4]; [11]) | Emax (dopamine D2 receptors [4]) [%] | pKi (5-HT1A receptor [5]; [12]) | Emax (5-HT2A receptor [6]; [13]) [%] | pEC50 (dopamine D2 receptors [7]; [14]) | Emax (dopamine D2 receptors [7]) [%] | pKi (dopamine D2 receptors [8]) | pEC50 (5-HT2A receptor [1]; [15]) | pEC50 (5-HT2A receptor [6]; [16]) | other results |
| --- | --- | --- | --- | --- | --- | --- | --- | --- | --- | --- | --- | --- | --- | --- |
| Fc1ccc(CCN2CCN3c4cccc5scc(c45)CC3C2)cc1 (stereo not drawn) [Compound I-5, 8-(4-Fluorophenylethyl)-6,6a,7,8,9,10-Hexahydropyrazino[1,2-a]Thieno [4,3,2-De]Quinoline] | 50 | 6.04 | 91 | 5.50 | 6.71 | 53.8 | 6.55 | 27.3 | 6.43 | 27.2 | 5.12 |  |  | pEC50 (5-HT2A receptor [1]; read-out: Gαq BRET EC50): 5.96; pEC50 (5-HT2A receptor [6]; read-out: β-arrestin2 BRET EC50): 6.02 |
| CCCN1CCN2c3cccc4scc(c34)CC2C1 (stereo not drawn) [Compound I-2, 8-Propyl-6,6a,7,8,9,10-Hexahydropyrazino[1,2-a]Thieno [4,3,2-De]Quinoline] | 7.6 | 6.15 | 72 | 5.11 | 6.13 | 12.1 | 5.47 | 66.3 | 7.71 | 27.6 | 6.42 | 8.62 | 6.53 |  |
| O=c1ccc2ccc(OCCCN3CCN4c5cccc6scc(c56)CC4C3)cc2[nH]1 (stereo not drawn) [Compound I-17, 7-(3-(6a,7,9,10-Tetrahydropyrazino[1,2-a]Thieno [4,3,2-De]Quinolin-8 (6H)-Yl) Propoxy) Quinolin-2 (1H)-One] | 23.4 | 6.12 | 86 | 6.12 | 7.73 | 81.6 | 6.47 | 92.2 | 7.04 | 66.8 | 6.54 | 6.55 | 5.90 |  |
| CN(C)C(=O)N[C@H]1CC[C@H](CCN2CCN3c4cccc5scc(c45)CC3C2)CC1 (stereo partly drawn) [Compound I-27, 1,1-Dimethyl-3-(4-(2-(6a, 7,9,10-Tetrahydropyrazino[1,2-a]Thieno [4,3,2-De]Quinolin-8 (6H)-Yl)Ethyl) Trans-Cyclohexyl) Urea] | 9.57 | 6.68 | 64 | 6.79 | 8.41 | 73.6 | 6.80 | 34.7 | 7.99 | 52.1 | 7.10 | 6.80 | 7.86 |  |
| OCCN1CCN2c3cccc4scc(c34)CC2C1 (stereo not drawn) [Compound I-3, 2-(6a,7,9,10-Tetrahydropyrazino[1,2-a]Thieno [4,3,2-De]Quinolin-8 (6H)-Yl) Ethan-1-Ol] | 43.6 | 5.38 | 62 |  |  | 22.5 |  | 90 |  | 14.2 | < 5.00 |  |  | pEC50 (5-HT2A receptor [1]): 5.82; pEC50 (5-HT1A receptor [3]): 4.62; pEC50 (dopamine D2 receptors [4]): 7.39; pKi (5-HT1A receptor [5]): 5.36; pEC50 (5-HT2A receptor [6]): 6.19; pEC50 (dopamine D2 receptors [7]): 6.72 |
| Fc1ccc(-c2cncc(CN3CCN4c5cccc6scc(c56)CC4C3)c2)cc1 (stereo not drawn) [Compound I-8, 8-((5-(4-Fluorophenyl)Pyridin-3-Yl)Methyl)-6,6a,7,8,9,10-Hexahydropyrazino[1,2-a]Thieno [4,3,2-De]Quinoline] | 21 | 5.84 | 53 | 4.79 | 6.28 | 15.9 | 5.01 | 84.2 | 6.43 | 14.1 | 6.36 | 5.34 | 5.89 |  |
| COc1cc2c(cc1OC)C(=O)N(CCCCN1CCN3c4cccc5scc(c45)CC3C1)C2 (stereo not drawn) [Compound I-23, 5,6-Dimethoxy-2-(4-(6a,7,9,10-Tetrahydropyrazino[1,2-a]Thieno [4,3,2-De]Quinolin-8 (6H)-Yl)Butyl) Isoindolin-1-One] | 18.9 | 6.80 | 71 | 5.17 | 6.55 | 61.9 | 5.38 | 138 | 6.89 | 38.5 | 6.12 | 6.61 | 5.09 |  |
| O=C(N[C@H]1CC[C@H](CCN2CCN3c4cccc5scc(c45)CC3C2)CC1)N1CCCCC1 (stereo partly drawn) [Compound I-29, N-(4-(2-(6a,7,9,10-Tetrahydropyrazino[1,2-a]Thieno [4,3,2-De]Quinolin-8 (6H)-Yl)Ethyl) Trans-Cyclohexyl) Piperidine-1-Carboxamide] | 8.61 | 6.35 | 62 | 5.83 | 7.49 | 45.2 | 6.92 | 21.8 | 6.99 | 31.8 | 6.74 | 6.52 | 7.52 |  |
| O=C1c2ccccc2CN1CCCCN1CCN2c3cccc4scc(c34)CC2C1 (stereo not drawn) [Compound I-22, 2-(4-(6a,7,9,10-Tetrahydropyrazino[1,2-a]Thieno [4,3,2-De]Quinolin-8 (6H)-Yl)Butyl) Isoindolin-1-One] | 13.8 | 5.92 | 87 | 5.83 | 6.79 | 37 | 6.46 | 64.6 | 6.48 | 24.8 | 6.31 | 6.01 | 5.46 |  |
